Test systems include TK-10 renal; SR leukemia; NCI/ADR-RES ovarian; UACC-62 melanoma; KM12 colon; NCI-H226 lung; HOP-62 NSCLC; HT29 colon; UO-31 renal; IGROV1 ovarian.
Holding throughout (experiment): growth of human tumour cells (NCI), 48 h

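Interpolation was linear, between the two tested concentrations surrounding the appropriate level; five concentrations were tested over 48 hours in 96-well plates. At the GI50, growth is halved. TGI marks complete inhibition of growth.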

Take `CC1CC(O)C(=O)C(O[C@@H]2C[C@@H]3CC[C@@H]4[C@H](CC[C@]5(C)C(C6=CC(=O)OC6)CC[C@]45O)[C@@]3(C=O)C[C@H]2O)O1` (some centres undefined): the TGI with TK-10 renal worked out at 0.173 µM; in the experiment with SR leukemia, 0.0792 µM; with NCI/ADR-RES ovarian, 0.0678 µM; with UACC-62 melanoma, 0.178 µM; with KM12 colon it was 0.44 µM; in the experiment on NCI-H226 lung it was 0.228 µM. Further, the TGI in the experiment on HOP-62 NSCLC is 0.0492 µM; in the experiment on HT29 colon, 0.171 µM; with UO-31 renal, 0.22 µM.
Turning to `COC(=O)c1cc2c(o1)-c1nccc3c1c(nc1ccccc13)C2=O`, the GI50 in the experiment with TK-10 renal was 22.9 µM; with SR leukemia, 0.519 µM; in the experiment on NCI/ADR-RES ovarian it was 2.11 µM; in the experiment on IGROV1 ovarian, 1.4 µM; in the experiment on KM12 colon, 3.77 µM; in the experiment with NCI-H226 lung it was 8.08 µM. Moreover, the GI50 in the experiment on HOP-62 NSCLC is 1.4 µM; in the experiment on HT29 colon it was 8.01 µM; in the experiment with UO-31 renal it was 5.49 µM. Also, the TGI in the experiment on TK-10 renal was determined as 52.2 µM; in the experiment with SR leukemia, 2.51 µM; with NCI/ADR-RES ovarian, 5.68 µM; in the experiment with IGROV1 ovarian, 4.42 µM; in the experiment on KM12 colon it was 16.7 µM; in the experiment with NCI-H226 lung, 25.4 µM. The values for the TGI with HOP-62 NSCLC, in the experiment with HT29 colon and in the experiment on UO-31 renal were 11 µM, 24.8 µM and 24.3 µM, respectively.
As to `N[C@H](CCC(=O)N[C@@H](Cc1c[nH]c2ccccc12)C(=O)O)C(=O)O`, the GI50 in the experiment with TK-10 renal, in the experiment on SR leukemia, in the experiment with NCI/ADR-RES ovarian, with IGROV1 ovarian, in the experiment on UACC-62 melanoma and in the experiment on KM12 colon was over 100 µM throughout. The GI50 in the experiment with NCI-H226 lung, in the experiment on HOP-62 NSCLC, with HT29 colon and in the experiment with UO-31 renal was over 100 µM throughout. Further, the TGI in the experiment with TK-10 renal, in the experiment on SR leukemia, with NCI/ADR-RES ovarian, in the experiment on IGROV1 ovarian, in the experiment with UACC-62 melanoma and with KM12 colon was over 100 µM throughout. For the same compound, the TGI in the experiment with NCI-H226 lung, in the experiment with HOP-62 NSCLC, in the experiment with HT29 colon and in the experiment with UO-31 renal was over 100 µM in each case.
As for `Cc1cc(N/N=C/c2ccccn2)nc2ccccc12`, the GI50 was 0.674 µM in the experiment on TK-10 renal; 0.308 µM in the experiment on SR leukemia; 0.393 µM in the experiment with NCI/ADR-RES ovarian; 0.356 µM with IGROV1 ovarian; 0.406 µM in the experiment with UACC-62 melanoma; 0.508 µM in the experiment on KM12 colon. In addition, the GI50 was 0.286 µM in the experiment with NCI-H226 lung, 0.331 µM with HOP-62 NSCLC, 0.605 µM with HT29 colon and 0.286 µM in the experiment on UO-31 renal. Besides, the TGI came out at 20.6 µM in the experiment on TK-10 renal; 5 µM with SR leukemia; 21.7 µM in the experiment with NCI/ADR-RES ovarian; 3.95 µM in the experiment with IGROV1 ovarian; 3.36 µM in the experiment with UACC-62 melanoma; 14.9 µM with KM12 colon. For the same compound, the TGI came out at 4.93 µM in the experiment with NCI-H226 lung, 5.06 µM with HOP-62 NSCLC, 13.1 µM in the experiment with HT29 colon and 2.29 µM with UO-31 renal.
Consider `O=C(/C=C/c1ccccc1)c1ccccc1`, for which the TGI in the experiment with TK-10 renal, in the experiment on SR leukemia, in the experiment with NCI/ADR-RES ovarian, in the experiment with IGROV1 ovarian, in the experiment with UACC-62 melanoma and with KM12 colon was over 10 µM each time. Besides, the TGI with NCI-H226 lung, in the experiment with HOP-62 NSCLC, in the experiment on HT29 colon and in the experiment with UO-31 renal was over 10 µM in each case.
Regarding `NCCNCC1CCNCC1`, the TGI in the experiment with TK-10 renal, in the experiment on SR leukemia, in the experiment with NCI/ADR-RES ovarian, with IGROV1 ovarian, in the experiment with UACC-62 melanoma and in the experiment on KM12 colon was over 100 µM throughout. The TGI with NCI-H226 lung, in the experiment on HOP-62 NSCLC, in the experiment with HT29 colon and with UO-31 renal was over 100 µM in each case.
For `ClCCN(CCCl)c1ccc(CNc2ccccc2)cc1`, the GI50 in the experiment with SR leukemia was 0.674 µM; in the experiment with NCI/ADR-RES ovarian, 9.78 µM; in the experiment with IGROV1 ovarian, 16 µM; in the experiment with KM12 colon, 24.7 µM; with NCI-H226 lung it was 10.3 µM; in the experiment on HOP-62 NSCLC it was 6.32 µM. In addition, the GI50 in the experiment on HT29 colon was 20.4 µM; with UO-31 renal it was 4.86 µM. Besides, the TGI in the experiment on SR leukemia is over 100 µM; with NCI/ADR-RES ovarian it was over 100 µM; in the experiment with IGROV1 ovarian it was over 100 µM; in the experiment with KM12 colon it was over 100 µM; with NCI-H226 lung, 28.2 µM; in the experiment on HOP-62 NSCLC, over 100 µM. The TGI with HT29 colon was over 100 µM; with UO-31 renal it was 42.3 µM.
As for `Cc1cc(Nc2nc(-c3cn(-c4ccc(Cl)cc4)nn3)nc3ccccc23)n[nH]1`, the GI50 with TK-10 renal was 6.69 µM; with SR leukemia, 8.78 µM; in the experiment with NCI/ADR-RES ovarian it was 1.58 µM; with IGROV1 ovarian, 9.16 µM; in the experiment on KM12 colon it was 4.95 µM; with NCI-H226 lung, over 50 µM. Further, the GI50 in the experiment on HOP-62 NSCLC is 14 µM; with HT29 colon, 23.5 µM; with UO-31 renal it was 1.65 µM. The TGI is 39.3 µM with TK-10 renal; 40 µM in the experiment with SR leukemia; over 50 µM in the experiment with NCI/ADR-RES ovarian; over 50 µM in the experiment on IGROV1 ovarian; over 50 µM in the experiment on KM12 colon; over 50 µM with NCI-H226 lung. In addition, the values for the TGI in the experiment on HOP-62 NSCLC, with HT29 colon and in the experiment with UO-31 renal were over 50 µM, over 50 µM and 11.3 µM, respectively.
On to `CC1(C)CN=C(NN=C(/C=C/c2ccc(C(F)(F)F)cc2)/C=C/c2ccc(C(F)(F)F)cc2)NC1`, for which the GI50 is 1.91 µM in the experiment with TK-10 renal; 1.4 µM in the experiment on NCI/ADR-RES ovarian; 1.44 µM with IGROV1 ovarian; 1.72 µM in the experiment on UACC-62 melanoma; 1.21 µM in the experiment with KM12 colon; 1.51 µM in the experiment with NCI-H226 lung. The GI50 was 1.93 µM with HOP-62 NSCLC, 0.785 µM in the experiment on HT29 colon and 1.52 µM in the experiment on UO-31 renal. Also, the TGI in the experiment with TK-10 renal amounted to 3.37 µM; in the experiment with NCI/ADR-RES ovarian, 3.03 µM; in the experiment on IGROV1 ovarian, 2.88 µM; in the experiment on UACC-62 melanoma, 3.31 µM; in the experiment with KM12 colon, 2.45 µM; in the experiment on NCI-H226 lung it was 3.27 µM. For the same compound, the results for the TGI with HOP-62 NSCLC, with HT29 colon and with UO-31 renal were 3.56 µM, 2.14 µM and 2.94 µM, respectively.

The values are drawn from PubChem BioAssay (NCI).
